Assay results from the supplement of paper PMC10307832.

Assays:
Assay in all cases: relative viability (nuclei count vs DMSO), 5 days (fraction); higher = more cells survive
[1] = system: 201T
How it was run: (§1)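 Cells from lung cancer lines were seeded into 1536-well plates and, one day later, dosed by pin tool. Treatments were either a single drug or a fixed dose of an anchor drug with five library-drug doses (not always all listed) in √10 steps. After 5 days, nuclei were stained in a one-step fixation (final 0.05% Triton X-100, 1% formaldehyde, 1 ug/ml Hoechst) and counted on 4× images, and relative viability is the treated-to-vehicle nuclei ratio, as the median of duplicate plates.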

[2] = system: A-427
How it was run: as §1

[3] = system: COR-L23
How it was run: as §1

[4] = system: HARA
How it was run: as §1

[5] = system: HCC-78
How it was run: as §1

[6] = system: LCLC-103H
How it was run: as §1

[7] = system: LCLC-97TM1
How it was run: as §1

[8] = system: LK-2
How it was run: as §1

[9] = system: LOU-NH91
How it was run: as §1

[10] = system: LXF-289
How it was run: as §1

[11] = system: NCI-H1650
How it was run: as §1

[12] = system: NCI-H1651
How it was run: as §1

[13] = system: NCI-H1793
How it was run: as §1

[14] = system: NCI-H2347
How it was run: as §1

[15] = system: NCI-H23
How it was run: as §1

[16] = system: NCI-H2405
How it was run: as §1

[17] = system: NCI-H520
How it was run: as §1

[18] = system: NCI-H647
How it was run: as §1

[19] = system: NCI-H838
How it was run: as §1

[20] = system: PC-3 [JPC-3]
How it was run: as §1

[21] = system: RERF-LC-KJ
How it was run: as §1

[22] = system: UMC-11
How it was run: as §1

SMILES: Cc1csc(=NC2CCCCC2)n1/N=C/c1ccc(O)c(O)c1O [MIM1] + COc1cc2c(Oc3ccc(NC(=O)C4(C(=O)Nc5ccc(F)cc5)CC4)cc3F)ccnc2cc1OCCCN1CCOCC1 [Foretinib] (partner 0.25 µM)
- relative viability ([1]; first compound 0.2 µM): 1.11
- relative viability ([1]; first compound 2 µM): 0.993
- relative viability ([1]; first compound 6.325 µM): 0.709
- relative viability ([1]; first compound 20 µM): 0.483
- relative viability ([2]; first compound 0.2 µM): 1.15
- relative viability ([2]; first compound 2 µM): 1.05
- relative viability ([2]; first compound 6.325 µM): 1.07
- relative viability ([2]; first compound 20 µM): 0.25
- relative viability ([3]; first compound 0.2 µM): 0.992
- relative viability ([3]; first compound 0.6325 µM): 0.935
- relative viability ([3]; first compound 2 µM): 0.839
- relative viability ([3]; first compound 6.325 µM): 0.802
- relative viability ([3]; first compound 20 µM): 0.547
- relative viability ([4]; first compound 0.2 µM): 0.954
- relative viability ([4]; first compound 2 µM): 0.991
- relative viability ([4]; first compound 6.325 µM): 0.868
- relative viability ([4]; first compound 20 µM): 0.131
- relative viability ([5]; first compound 0.2 µM): 0.558
- relative viability ([5]; first compound 0.6325 µM): 0.563
- relative viability ([5]; first compound 2 µM): 0.539
- relative viability ([5]; first compound 6.325 µM): 0.553
- relative viability ([5]; first compound 20 µM): 0.911
- relative viability ([6]; first compound 0.2 µM): 0.82
- relative viability ([6]; first compound 0.6325 µM): 0.833
- relative viability ([6]; first compound 2 µM): 0.942
- relative viability ([6]; first compound 6.325 µM): 0.545
- relative viability ([6]; first compound 20 µM): 0.364
- relative viability ([7]; first compound 0.2 µM): 0.92
- relative viability ([7]; first compound 0.6325 µM): 1.08
- relative viability ([7]; first compound 2 µM): 0.888
- relative viability ([7]; first compound 6.325 µM): 0.611
- relative viability ([7]; first compound 20 µM): 0.259
- relative viability ([8]; first compound 0.2 µM): 1.46
- relative viability ([8]; first compound 2 µM): 1.33
- relative viability ([8]; first compound 6.325 µM): 1.17
- relative viability ([8]; first compound 20 µM): 0.218
- relative viability ([9]; first compound 0.2 µM): 0.9
- relative viability ([9]; first compound 0.6325 µM): 0.965
- relative viability ([9]; first compound 2 µM): 0.833
- relative viability ([9]; first compound 6.325 µM): 0.807
- relative viability ([9]; first compound 20 µM): 0.39
- relative viability ([10]; first compound 0.2 µM): 1.02
- relative viability ([10]; first compound 0.6325 µM): 0.9
- relative viability ([10]; first compound 2 µM): 1.03
- relative viability ([10]; first compound 6.325 µM): 0.789
- relative viability ([10]; first compound 20 µM): 0.721
- relative viability ([11]; first compound 0.2 µM): 1.16
- relative viability ([11]; first compound 0.6325 µM): 1.12
- relative viability ([11]; first compound 2 µM): 0.832
- relative viability ([11]; first compound 6.325 µM): 0.265
- relative viability ([11]; first compound 20 µM): 0.142
- relative viability ([12]; first compound 0.2 µM): 0.722
- relative viability ([12]; first compound 0.6325 µM): 0.741
- relative viability ([12]; first compound 2 µM): 0.824
- relative viability ([12]; first compound 6.325 µM): 0.648
- relative viability ([12]; first compound 20 µM): 0.652
- relative viability ([13]; first compound 0.2 µM): 0.793
- relative viability ([13]; first compound 2 µM): 0.735
- relative viability ([13]; first compound 6.325 µM): 0.686
- relative viability ([13]; first compound 20 µM): 1.01
- relative viability ([14]; first compound 0.2 µM): 0.953
- relative viability ([14]; first compound 0.6325 µM): 0.568
- relative viability ([14]; first compound 2 µM): 0.567
- relative viability ([14]; first compound 6.325 µM): 1.18
- relative viability ([14]; first compound 20 µM): 0.445
- relative viability ([15]; first compound 0.2 µM): 1.07
- relative viability ([15]; first compound 2 µM): 0.791
- relative viability ([15]; first compound 6.325 µM): 0.812
- relative viability ([15]; first compound 20 µM): 0.263
- relative viability ([16]; first compound 0.2 µM): 1.05
- relative viability ([16]; first compound 0.6325 µM): 1.05
- relative viability ([16]; first compound 2 µM): 1
- relative viability ([16]; first compound 6.325 µM): 0.741
- relative viability ([16]; first compound 20 µM): 0.866
- relative viability ([17]; first compound 0.2 µM): 0.635
- relative viability ([17]; first compound 0.6325 µM): 0.728
- relative viability ([17]; first compound 2 µM): 0.587
- relative viability ([17]; first compound 6.325 µM): 0.646
- relative viability ([17]; first compound 20 µM): 0.501
- relative viability ([18]; first compound 0.2 µM): 1.16
- relative viability ([18]; first compound 0.6325 µM): 1.12
- relative viability ([18]; first compound 6.325 µM): 1
- relative viability ([18]; first compound 20 µM): 0.703
- relative viability ([19]; first compound 0.2 µM): 1.01
- relative viability ([19]; first compound 0.6325 µM): 1.01
- relative viability ([19]; first compound 2 µM): 0.761
- relative viability ([19]; first compound 6.325 µM): 0.853
- relative viability ([19]; first compound 20 µM): 0.657
- relative viability ([20]; first compound 0.2 µM): 1.01
- relative viability ([20]; first compound 0.6325 µM): 1.05
- relative viability ([20]; first compound 2 µM): 1.01
- relative viability ([20]; first compound 6.325 µM): 0.763
- relative viability ([20]; first compound 20 µM): 0.531
- relative viability ([21]; first compound 0.2 µM): 0.887
- relative viability ([21]; first compound 0.6325 µM): 0.808
- relative viability ([21]; first compound 2 µM): 0.803
- relative viability ([21]; first compound 6.325 µM): 0.637
- relative viability ([21]; first compound 20 µM): 0.24
- relative viability ([22]; first compound 0.2 µM): 1.07
- relative viability ([22]; first compound 2 µM): 1.2
- relative viability ([22]; first compound 6.325 µM): 0.703
- relative viability ([22]; first compound 20 µM): 0.335
